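Five concentrations, 48 hours, 96-well plates. GI50 = concentration required for 50% inhibition of growth. TGI: total growth inhibition.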
Assays:
Assay in all cases: inhibition of tumour cell growth, NCI panel, 48 h
OVCAR-4 ovarian = system: OVCAR-4 ovarian
SK-MEL-2 melanoma = system: SK-MEL-2 melanoma
HL-60(TB) leukemia = system: HL-60(TB) leukemia
SF-295 CNS = system: SF-295 CNS
HS 578T breast = system: HS 578T breast
NCI-H226 lung = system: NCI-H226 lung
UACC-257 melanoma = system: UACC-257 melanoma
CCRF-CEM leukemia = system: CCRF-CEM leukemia
UACC-62 melanoma = system: UACC-62 melanoma
OVCAR-8 ovarian = system: OVCAR-8 ovarian
NCI-H522 lung = system: NCI-H522 lung
SW-620 colon = system: SW-620 colon
SN12C renal = system: SN12C renal
HCT-15 colon = system: HCT-15 colon
HT29 colon = system: HT29 colon
SK-MEL-28 melanoma = system: SK-MEL-28 melanoma
COLO 205 colon = system: COLO 205 colon
KM12 colon = system: KM12 colon
HCC-2998 colon = system: HCC-2998 colon
TK-10 renal = system: TK-10 renal
CAKI-1 renal = system: CAKI-1 renal
OVCAR-3 ovarian = system: OVCAR-3 ovarian
A549 NSCLC = system: A549 NSCLC
SF-539 CNS = system: SF-539 CNS
MDA-MB-231 breast = system: MDA-MB-231 breast
HOP-62 NSCLC = system: HOP-62 NSCLC
SK-MEL-5 melanoma = system: SK-MEL-5 melanoma
SK-OV-3 ovarian = system: SK-OV-3 ovarian
DU-145 prostate = system: DU-145 prostate
LOX IMVI melanoma = system: LOX IMVI melanoma
786-0 renal = system: 786-0 renal
A498 renal = system: A498 renal
UO-31 renal = system: UO-31 renal
HOP-92 NSCLC = system: HOP-92 NSCLC
NCI-H460 lung = system: NCI-H460 lung
BT-549 breast = system: BT-549 breast
MOLT-4 leukemia = system: MOLT-4 leukemia
OVCAR-5 ovarian = system: OVCAR-5 ovarian
K-562 leukemia = system: K-562 leukemia
RXF 393 renal = system: RXF 393 renal
NCI/ADR-RES ovarian = system: NCI/ADR-RES ovarian
EKVX NSCLC = system: EKVX NSCLC
RPMI-8226 leukemia = system: RPMI-8226 leukemia
MCF7 breast = system: MCF7 breast
PC-3 prostate = system: PC-3 prostate
SR leukemia = system: SR leukemia
MALME-3M melanoma = system: MALME-3M melanoma
IGROV1 ovarian = system: IGROV1 ovarian
T-47D breast = system: T-47D breast
ACHN renal = system: ACHN renal
SF-268 CNS = system: SF-268 CNS
HCT-116 colon = system: HCT-116 colon
U251 CNS = system: U251 CNS
MDA-MB-435 = system: MDA-MB-435
SNB-75 CNS = system: SNB-75 CNS
SNB-19 CNS = system: SNB-19 CNS
NCI-H23 lung = system: NCI-H23 lung

CCN(CC)c1ccc2c(cc1=O)[C@@H](NC(C)=O)CCc1cc(OC)c(OC)c(OC)c1-2
GI50 (OVCAR-4 ovarian): 3320 nM
TGI (OVCAR-4 ovarian): > 100000 nM
GI50 (SK-MEL-2 melanoma): 275 nM
TGI (SK-MEL-2 melanoma): > 100000 nM
GI50 (HL-60(TB) leukemia): 63.3 nM
TGI (HL-60(TB) leukemia): 319 nM
GI50 (SF-295 CNS): 277 nM
TGI (SF-295 CNS): > 100000 nM
GI50 (HS 578T breast): 648 nM
TGI (HS 578T breast): > 100000 nM
GI50 (NCI-H226 lung): 409 nM
TGI (NCI-H226 lung): > 100000 nM
GI50 (UACC-257 melanoma): > 100000 nM
TGI (UACC-257 melanoma): > 100000 nM
GI50 (CCRF-CEM leukemia): 213 nM
TGI (CCRF-CEM leukemia): > 100000 nM
GI50 (UACC-62 melanoma): 311 nM
TGI (UACC-62 melanoma): > 100000 nM
GI50 (OVCAR-8 ovarian): 467 nM
TGI (OVCAR-8 ovarian): > 100000 nM
GI50 (NCI-H522 lung): 218 nM
TGI (NCI-H522 lung): 579 nM
GI50 (SW-620 colon): 287 nM
TGI (SW-620 colon): > 100000 nM
GI50 (SN12C renal): 691 nM
TGI (SN12C renal): > 100000 nM
GI50 (HCT-15 colon): 2640 nM
TGI (HCT-15 colon): > 100000 nM
GI50 (HT29 colon): 331 nM
GI50 (SK-MEL-28 melanoma): > 100000 nM
TGI (SK-MEL-28 melanoma): > 100000 nM
GI50 (COLO 205 colon): 101 nM
TGI (COLO 205 colon): 500 nM
GI50 (KM12 colon): 282 nM
TGI (KM12 colon): > 100000 nM
GI50 (HCC-2998 colon): 347 nM
TGI (HCC-2998 colon): > 100000 nM
GI50 (TK-10 renal): 65200 nM
TGI (TK-10 renal): > 100000 nM
GI50 (CAKI-1 renal): 4620 nM
TGI (CAKI-1 renal): > 100000 nM
GI50 (OVCAR-3 ovarian): 250 nM
TGI (OVCAR-3 ovarian): 647 nM
GI50 (A549 NSCLC): 744 nM
TGI (A549 NSCLC): > 100000 nM
GI50 (SF-539 CNS): 217 nM
GI50 (MDA-MB-231 breast): 552 nM
TGI (MDA-MB-231 breast): > 100000 nM
GI50 (HOP-62 NSCLC): 563 nM
TGI (HOP-62 NSCLC): > 100000 nM
GI50 (SK-MEL-5 melanoma): 302 nM
TGI (SK-MEL-5 melanoma): 1560 nM
GI50 (SK-OV-3 ovarian): 407 nM
TGI (SK-OV-3 ovarian): > 100000 nM
GI50 (DU-145 prostate): 368 nM
GI50 (LOX IMVI melanoma): 345 nM
TGI (LOX IMVI melanoma): > 100000 nM
GI50 (786-0 renal): 622 nM
TGI (786-0 renal): > 100000 nM
GI50 (A498 renal): 260 nM
GI50 (UO-31 renal): 6720 nM
TGI (UO-31 renal): > 100000 nM
GI50 (HOP-92 NSCLC): 7110 nM
TGI (HOP-92 NSCLC): > 100000 nM
GI50 (NCI-H460 lung): 359 nM
TGI (NCI-H460 lung): > 100000 nM
GI50 (BT-549 breast): 245 nM
TGI (BT-549 breast): 7280 nM
GI50 (MOLT-4 leukemia): 511 nM
TGI (MOLT-4 leukemia): > 100000 nM
GI50 (OVCAR-5 ovarian): 2450 nM
TGI (OVCAR-5 ovarian): > 100000 nM
GI50 (K-562 leukemia): 224 nM
TGI (K-562 leukemia): > 100000 nM
GI50 (RXF 393 renal): 381 nM
TGI (RXF 393 renal): > 100000 nM
GI50 (NCI/ADR-RES ovarian): 14300 nM
TGI (NCI/ADR-RES ovarian): > 100000 nM
GI50 (EKVX NSCLC): 714 nM
TGI (EKVX NSCLC): > 100000 nM
GI50 (RPMI-8226 leukemia): 288 nM
TGI (RPMI-8226 leukemia): > 100000 nM
GI50 (MCF7 breast): 148 nM
TGI (MCF7 breast): > 100000 nM
GI50 (PC-3 prostate): 366 nM
TGI (PC-3 prostate): > 100000 nM
GI50 (SR leukemia): 52.9 nM
TGI (SR leukemia): > 100000 nM
GI50 (MALME-3M melanoma): > 100000 nM
TGI (MALME-3M melanoma): > 100000 nM
GI50 (IGROV1 ovarian): 510 nM
TGI (IGROV1 ovarian): > 100000 nM
GI50 (T-47D breast): > 100000 nM
TGI (T-47D breast): > 100000 nM
GI50 (ACHN renal): 2620 nM
TGI (ACHN renal): > 100000 nM
GI50 (SF-268 CNS): 511 nM
TGI (SF-268 CNS): > 100000 nM
GI50 (HCT-116 colon): 205 nM
TGI (HCT-116 colon): > 100000 nM
GI50 (U251 CNS): 407 nM
TGI (U251 CNS): > 100000 nM
GI50 (MDA-MB-435): 59.4 nM
TGI (MDA-MB-435): 305 nM
GI50 (SNB-75 CNS): 321 nM
TGI (SNB-75 CNS): > 100000 nM
GI50 (SNB-19 CNS): 409 nM
TGI (SNB-19 CNS): > 100000 nM
GI50 (NCI-H23 lung): 578 nM
TGI (NCI-H23 lung): > 100000 nM

From PubChem BioAssay (NCI)
